CCc1ccc2c(c1)C(=O)c1ccccc1C2=O
solubility (mole fraction)
Conditions	304.15 K	309.15 K	314.15 K	319.15 K	324.15 K	329.15 K	334.15 K	339.15 K	344.15 K
in 2-methyl-cyclohexyl acetate	0.0752	0.0907	0.104	0.127	0.145	0.171	0.199	0.232	0.268
in 2-phenylethanol	0.107	0.127	0.15	0.176	0.21	0.248	0.288	0.334	0.385
in DMAc	0.0943	0.113	0.131	0.156	0.184	0.214	0.248	0.287	0.336
in DMF	0.107	0.126	0.153	0.176	0.21	0.245	0.283	0.335	0.388
in acetophenone	0.138	0.163	0.185	0.21	0.238	0.274	0.315	0.356	0.397
in diglyme	0.165	0.191	0.216	0.244	0.275	0.314	0.357	0.401	0.444
in diisobutyl methanol	0.0441	0.0536	0.0651	0.0787	0.0973	0.116	0.139	0.163	0.199
in dioctyl adipate	0.0657	0.0773	0.0899	0.107	0.129	0.152	0.18	0.209	0.242
in mesitylene	0.139	0.159	0.184	0.209	0.234	0.264	0.296	0.329	0.371
in styrene	0.0944	0.112	0.132	0.153	0.182	0.212	0.248	0.285	0.335
in tetrabutyl urea	0.0531	0.0644	0.0785	0.0947	0.116	0.139	0.17	0.197	0.24
in trioctyl phosphate	0.0569	0.0678	0.0792	0.0959	0.114	0.135	0.155	0.182	0.22

Reference: BigSolDB 2.1
